Reference: US4361577A, “ω-Nor-cycloalkyl-13,14-dehydro-prostaglandins and process for their preparation” (Carlo Erba - S.p.A., priority 1974, dated 1982)

What was measured:
rat uterus [1] = test: rat uterus test (spasmogenic activity); conditions: for ratio Uterus/Ileum / ratio Uterus/Stomach Fundus: ratio of activities relative to PGF2α; for ratio Uterus/Ileum: rat uterus / guinea pig ileum; for ratio Uterus/Stomach Fundus: rat uterus / rat stomach fundus; for spasmogenic activity, Rat Uterus: relative to PGF2α = 1 (conventional value), in vitro, 29° C., oestrogenized rat uteri
Text: (§1) The same compound (13,14-dehydro-17-cyclohexyl-20,19,18-trinor-PGF2α) was compared with PGF2α and with the olefinic analogue 5c,13t-9α,11α,15S-trihydroxy-20,19,18-trinor-17-cyclohexyl-prosta-5,13-dienoic acid (17-cyclohexyl-20,19,18-trinor-PGF2α) in the following in vitro tests: guinea pig ileum test, rat uterus test, rat stomach fundus. The results are reported in the following Table, wherein to the activity of PGF2 the conventional value of 1 was given in all the tests. The three tests relate to the determination of the spasmogenic activity.
The rat uterus test consisted of a 10 ml thermostatic bath held at 29° C., in which oestrogenized rat uteri under 0.5 g traction were carboxygenated in a Dejalon saline solution. The preparation was left to stabilize for 30 minutes before the compounds were tested. Response was measured using a isotonic frontal lever, long enough to amplify the response 4.5 times.

[2] = molecular target: T1, 15-hydroxy-prostaglandin-dehydrogenase (Homo sapiens, UniProt P15428); test: inhibition of 15-hydroxy-prostaglandin-dehydrogenase drawn from human placenta, in vitro; type: biochemical
T1 construct: 15-hydroxy-prostaglandin-dehydrogenase drawn from human placenta; from tissue; host or cells: human placenta
T1 sequence (P15428 1-266): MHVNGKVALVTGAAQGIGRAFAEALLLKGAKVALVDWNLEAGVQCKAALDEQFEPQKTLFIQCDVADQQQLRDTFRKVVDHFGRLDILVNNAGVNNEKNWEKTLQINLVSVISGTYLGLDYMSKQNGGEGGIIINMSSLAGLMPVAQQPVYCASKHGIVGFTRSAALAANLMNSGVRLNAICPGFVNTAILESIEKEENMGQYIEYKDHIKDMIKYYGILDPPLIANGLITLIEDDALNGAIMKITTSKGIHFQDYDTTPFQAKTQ
Text: The compounds of formula (I) furthermore inhibit the use of natural prostaglandins as substrate by the enzyme.

rat uterus [3] = test: antagonism of PGF2α on the rat uterus; conditions: tested against PGF2α
guinea pig ileum = guinea pig ileum test (spasmogenic activity); conditions: relative to PGF2α = 1 (conventional value); in vitro, 35° C., Tyrode solution
Text: as §1
The guinea pig ileum test consisted of a 10 ml thermostatic bath held at 35° C., containing the ileum of a male guinea pig, under 0.5 g traction, carboxygenated in a Tyrode solution; this was left for 30 minutes to stabilize before the compounds were tested. The response was recorded using a isotonic frontal lever, long enough to amplify the response 4.5 times.

rat stomach fundus = rat stomach fundus test (spasmogenic activity); conditions: relative to PGF2α = 1 (conventional value); in vitro, male Sprague-Dawley rats
Text: as §1
The rat stomach fundus test was performed in the following manner: male albino rats of the Sprague-Dawley strain weighing 200-250 g were utilized. The stomach fundus strip was prepared according to Vane (J. R. Vane, Brit. J. Pharmacol. 12, 344, (1957)). The strip was suspended in a 10 ml organ bath containing Tyrode solution gassed with a mixture of O2 and CO2 (95:5%). The contractions of the strip were recorded using a isotonic frontal lever as in the preceding tests.

pregnant rat = test: luteolytic activity in the pregnant rat at the 9th-10th day of pregnancy; type: in vivo; conditions: relative to PGF2α = 1 (conventional value)
Text: The action selectivity of the 13,14-dehydro compounds on the miometrium and on the reproductive apparatus is also proven by the remarkable increase of the luteolytic activity in the pregnant rat at the 9th-10th day of pregnancy. In fact, if the conventional value of 1 is given to the luteolytic activity of PGF2α, the value of 30 is to be given to the luteolytic acitivity of 17-cyclohexyl-20,19,18-trinor-PGF2α, and the value of 200 to the luteolytic activity of 13,14-dehydro-17-cyclohexyl-20,19,18-trinor-PGF2α.

SMILES | ratio Uterus/Ileum (rat uterus [1]) | ratio Uterus/Stomach Fundus (rat uterus [1]) | spasmogenic activity, Rat Uterus (rat uterus [1]) | Ki ([2]; inhibition with respect to PGE2) | Ki ([2]; inhibition with respect to PGF2α) | kind of inhibition ([2]; with respect to PGE2) | kind of inhibition ([2]; with respect to PGF2α) | antagonism of PGF2α on the rat uterus (rat uterus [3]) | spasmogenic activity, Guinea Pig Ileum (guinea pig ileum) | spasmogenic activity, Rat Stomach Fundus (rat stomach fundus) | luteolytic activity (pregnant rat)
O=C(O)CCCC=CCC1C(O)CC(O)C1C#CC(O)CCC1CCCCC1 (stereo not drawn) [5c-9α,11α,15S-trihydroxy-20,19,18-trinor-17-cyclohexyl-prost-5-en-13-ynoic acid] | 91 | 8 | 15.7 | 468 µM | 152 µM | noncompetitive | partially competitive | able to antagonize PGF2α specifically and selectively | 0.17 | 1.96 | 200
O=C(O)CCCC=CCC1C(O)CC(O)C1C=CC(O)CCC1CCCCC1 (stereo not drawn) [17-cyclohexyl-20,19,18-trinor-PGF2α, 5c,13t-9α,11α,15S-trihydroxy-20,19,18-trinor-17-cyclohexyl-prosta-5,13-dienoic acid] | 5.4 | 1.7 | 3.23 |  |  |  |  |  | 0.60 | 1.86 | 30
CCCCC[C@H](O)/C=C/[C@@H]1[C@@H](C/C=C\CCCC(=O)O)[C@@H](O)C[C@H]1O [PGF2α] | 1 | 1 |  |  |  |  |  |  |  |  | 1
